What all share (assay): Post-emergence action against weeds, greenhouse pot test, visual scoring
What all share (assay type): in vivo

Experiment [1] relates to Zea mays (ZEAMX). The following applies: for inhibition at 36 g/ha: 36 g of ai/ha alone. The method, then:
(§1) Seeds or rhizome pieces of mono- and dicotyledonous harmful and useful plants were placed in peat pots (diameter 4 cm) filled with sandy loam and then covered with soil. The pots were kept in a greenhouse under optimum conditions. In addition, harmful plants encountered in paddy rice cultivation were cultivated in pots with a water level 2 cm above the soil surface.
(§2) About three weeks after the start of the cultivation, the test plants were treated at the 2- to 3-leaf stage. The herbicides, formulated as powder or liquid concentrates, were, either alone or in the combinations according to the invention, sprayed in various dosages on to the green parts of the plants using an application rate of 600 l of water/ha (converted). For further cultivation of the plants, the pots were then again kept under optimum conditions in a greenhouse.
(§3) The visual scoring of the herbicidal effects was carried out in intervals up to 21 days after the treatment. Scoring was carried out in percent in comparison to the untreated control plants. 0%=no herbicidal activity, 100%=complete herbicidal activity=complete kill.
(§4) The percentages from the treatments with the herbicides alone (=individual application) and with the combinations according to the invention (=mixtures) were employed to calculate interactions using the method of Colby.
(§5) • A, B=activity of components A and B in percent at a dosage of a and b g of ai/ha (=gramm of active substance per hectare), respectively. • E=expected value in % at a dosage of a+b g of ai/ha.

For experiment [2], the system named is Avena fatua (AVEFA). The following applies: Avena fatua, post-emergence, 504 h, read-out: % activity found. The protocol:
as §1, §2, §3, §4, §5

The test system of experiment [3] is Lolium multiflorum (LOLMU). The following applies: Lolium multiflorum, post-emergence, LOLMU, read-out: % activity found; for inhibition at 12 g/ha: 12 g of ai/ha alone; for inhibition at 70 g/ha: 70 g of ai/ha alone; for inhibition at 750 g/ha: 750 g of ai/ha alone. The protocol:
as §1, §2, §3, §4, §5

For experiment [4], the system named is Matricaria inodora (MATIN). The conditions noted are these: Tripleurospermum inodorum, post-emergence, 504 h, MATIN, 21 DAT, read-out: % activity found. The protocol: as §1, §2, §3, §4, §5
Experiment [5] deals with Triticum aestivum (TRZAS). The following applies: Triticum aestivum, post-emergence, read-out: % activity found; for inhibition at 750 g/ha: 750 g of ai/ha alone. The protocol:
as §1, §2, §3, §4, §5

Experiment [6] concerns Alopecurus myosuroides (ALOMY). The following applies: 504 h, read-out: % activity found. The protocol:
as §1, §2, §3
(§6) The percentages from the treatments with the herbicides alone (=individual application) and with the combinations according to the invention (=mixtures) were employed to calculate interactions using the method of Colby. When the observed efficacies of the mixtures exceed the formal sum of the values of the tests with individual applications, they also exceed the expected value according to Colby, which is calculated using the formula below (cf. S. R. Colby; in Weeds 15 (1967) pp. 20 to 22):
as §5

Experiment [7] has as its system Oryza sativa (ORYSA). The following applies: read-out: % activity found; for inhibition at 210 g/ha: 210 g of ai/ha alone. The method, then:
as §1, §2, §3, §6, §5

In experiment [8] the test system is Cyperus esculentus (CYPES). The protocol:
as §1, §2, §3, §4, §5

Where [9] appears, read: Cyperus esculentus, post-emergence, 504 h, read-out: % activity found.
[10] abbreviates: Zea mays, post-emergence, 240 h, read-out: % activity found.

SMILES strings stand for the structures. Like-named read-outs stand apart in the source and are kept apart here.

Regarding `C#CCOc1cc(-n2nc(C(C)(C)C)oc2=O)c(Cl)cc1Cl` [B5-2, 3-[2,4-dichloro-5-(2-propynyloxy)phenyl]-5-(1,1-dimethylethyl)-1,3,4-oxadiazol-2(3H)-one], the inhibition at 36 g/ha turned out to be 60% in experiment [1] (Zea mays, post-emergence, 240 h, ZEAMX, 10 DAT, read-out: % activity found); 40% in experiment [1] (Zea mays, post-emergence, 504 h, ZEAMX, 21 DAT, read-out: % activity found); 65% in experiment [3] (504 h, 21 DAT, 36 g of ai/ha alone); 60% in experiment [4] (36 g of ai/ha alone); 40% in experiment [5] (240 h, 10 DAT, 36 g of ai/ha alone). The inhibition at 12 g/ha in experiment [2] (AVEFA, 21 DAT, 12 g of ai/ha alone) stood at 20%; in experiment [3] (240 h, 10 DAT), 40%; in experiment [3] (504 h, 21 DAT) it was 30%; in experiment [4] (12 g of ai/ha alone), 60%; in experiment [6] (ALOMY, 21 DAT, 12 g of ai/ha alone), 20%.
With `CC(C)Oc1cc(-n2nc(C(C)(C)C)oc2=O)c(Cl)cc1Cl` [B5-3, 3-[2,4-dichloro-5-(1-methylethoxy)phenyl]-5-(1,1-dimethylethyl)-1,3,4-oxadiazol-2(3H)-one], the inhibition at 210 g/ha in experiment [1] (Zea mays, post-emergence, 504 h, ZEAMX, 21 DAT, 210 g of ai/ha alone, read-out: % activity found) worked out at 60%; in experiment [2] (AVEFA, 21 DAT, 210 g of ai/ha alone), 30%; in experiment [4] (210 g of ai/ha alone), 70%; in experiment [7] (240 h, ORYSA, 10 DAT) it was 40%; in experiment [7] (504 h, ORYSA, 21 DAT) it was 0%. The inhibition at 70 g/ha in experiment [2] (AVEFA, 21 DAT, 70 g of ai/ha alone) was 10%; in experiment [3] (240 h, 10 DAT) it was 50%; in experiment [3] (504 h, 21 DAT) it was 40%; in experiment [4] (70 g of ai/ha alone), 70%; in experiment [5] (240 h, 10 DAT, 70 g of ai/ha alone), 40%; in experiment [7] (504 h, ORYSA, 21 DAT, 70 g of ai/ha alone), 0%.
For `CC(C)c1nn(C(=O)NC(C)(C)C)c(=O)n1N` [B6-1, 4-amino-N-(1,1-dimethylethyl)-4,5-dihydro-3-(1-methylethyl)-5-oxo-1H-1,2,4-triazole-1-carboxamide], the inhibition at 750 g/ha in experiment [1] (Zea mays, post-emergence, 504 h, ZEAMX, 21 DAT, 750 g of ai/ha alone, read-out: % activity found) stood at 10%; in experiment [3] (240 h, 10 DAT), 60%; in experiment [3] (504 h, 21 DAT), 70%; in experiment [8] (setting [9]) it was 0%; in experiment [5] (240 h, 10 DAT), 20%; in experiment [5] (504 h, 21 DAT) it was 70%. Further, the inhibition at 750 g/ha in experiment [6] (ALOMY, 21 DAT, 750 g of ai/ha alone) came to 70%. Also, the inhibition at 250 g/ha in experiment [8] (setting [9]) amounted to 0%; in experiment [5] (240 h, 10 DAT, 250 g of ai/ha alone), 10%.
For the molecule `CCOC(=O)C(Cl)Cc1cc(-n2nc(C)n(C(F)F)c2=O)c(F)cc1Cl` (stereo not drawn) [B6-2, ethyl α,2-dichloro-5-[4-(difluoromethyl)-4,5-dihydro-3-methyl-5-oxo-1H-1,2,4-triazol-1-yl]-4-fluorobenzenepropanoate], the “(7) activity found” value came out at 30% in experiment [1] (ZEAMX, 21 DAT, rate (6) B6-2 6); 40% in experiment [1] (ZEAMX, 21 DAT, rate (6) B6-2 18); 50% in experiment [8] (CYPES, 21 DAT, rate (6) B6-2 18). For the same molecule, the inhibition at 6 g/ha in experiment [1] (setting [10]) stood at 50%; in experiment [2] it was 10%; in experiment [6], 0%; in experiment [7] (240 h), 50%. Further, the inhibition at 18 g/ha turned out to be 60% in experiment [1] (setting [10]) and 0% in experiment [6].

These data come from patent US20100075852A1, “HERBICIDE COMBINATION COMPRISING DIMETHOXYTRIAZINYL-SUBSTITUTED DIFLUOROMETHANESULFONYLANILIDES” (BAYER CROPSCIENCE AG, priority 2008, published 2010).
